What was measured:
[1] = molecular target: T1, Sodium- and chloride-dependent glycine transporter 2 (Homo sapiens, UniProt Q9Y345); assay: Inhibition of glycine transporter 2
T1 sequence (Q9Y345 whole entry): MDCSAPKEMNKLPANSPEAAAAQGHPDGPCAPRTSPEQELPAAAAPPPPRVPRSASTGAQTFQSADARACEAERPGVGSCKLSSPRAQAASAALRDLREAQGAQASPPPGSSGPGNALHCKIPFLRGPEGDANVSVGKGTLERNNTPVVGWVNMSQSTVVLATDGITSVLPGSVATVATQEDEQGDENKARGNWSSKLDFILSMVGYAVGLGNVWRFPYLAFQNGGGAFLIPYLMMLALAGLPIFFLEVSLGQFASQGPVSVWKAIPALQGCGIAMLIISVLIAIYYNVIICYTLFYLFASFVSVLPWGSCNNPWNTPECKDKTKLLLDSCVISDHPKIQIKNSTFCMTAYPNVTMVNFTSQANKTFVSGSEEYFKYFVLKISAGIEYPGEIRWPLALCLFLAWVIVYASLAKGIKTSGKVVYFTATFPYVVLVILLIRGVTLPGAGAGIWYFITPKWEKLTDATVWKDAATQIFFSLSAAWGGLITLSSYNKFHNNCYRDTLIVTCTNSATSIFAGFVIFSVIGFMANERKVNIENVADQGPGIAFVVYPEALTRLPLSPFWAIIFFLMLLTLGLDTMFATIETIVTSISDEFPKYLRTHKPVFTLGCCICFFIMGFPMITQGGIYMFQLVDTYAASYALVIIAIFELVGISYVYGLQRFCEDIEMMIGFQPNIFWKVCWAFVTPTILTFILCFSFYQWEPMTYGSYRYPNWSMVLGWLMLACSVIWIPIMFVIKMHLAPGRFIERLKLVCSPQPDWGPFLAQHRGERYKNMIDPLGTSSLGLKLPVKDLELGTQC

[2] = molecular target: T2, Sodium- and chloride-dependent taurine transporter (Homo sapiens, UniProt P31641); assay: Inhibition of taurine transporter; assay type: single protein
T2 sequence (P31641 whole entry): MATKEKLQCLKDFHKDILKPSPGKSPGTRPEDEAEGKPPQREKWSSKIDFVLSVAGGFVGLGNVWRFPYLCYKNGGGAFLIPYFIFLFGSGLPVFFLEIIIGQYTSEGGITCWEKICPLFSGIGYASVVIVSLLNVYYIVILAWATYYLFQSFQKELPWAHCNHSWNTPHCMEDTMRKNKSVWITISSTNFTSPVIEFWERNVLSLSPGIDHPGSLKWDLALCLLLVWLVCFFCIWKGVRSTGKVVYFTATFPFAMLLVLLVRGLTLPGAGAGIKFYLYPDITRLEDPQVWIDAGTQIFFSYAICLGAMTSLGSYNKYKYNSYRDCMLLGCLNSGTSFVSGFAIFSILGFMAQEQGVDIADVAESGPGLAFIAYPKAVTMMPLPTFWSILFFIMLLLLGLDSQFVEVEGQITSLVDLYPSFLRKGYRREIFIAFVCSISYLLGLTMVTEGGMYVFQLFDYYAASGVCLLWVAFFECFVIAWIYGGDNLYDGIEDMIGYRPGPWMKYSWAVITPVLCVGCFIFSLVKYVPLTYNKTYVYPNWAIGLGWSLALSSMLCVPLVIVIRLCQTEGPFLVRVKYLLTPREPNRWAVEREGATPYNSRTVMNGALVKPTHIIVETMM

[3] = molecular target: T3, Sodium- and chloride-dependent glycine transporter 1 (Homo sapiens, UniProt P48067); assay: Inhibition of human glycine transporter 1
T3 sequence (P48067 whole entry): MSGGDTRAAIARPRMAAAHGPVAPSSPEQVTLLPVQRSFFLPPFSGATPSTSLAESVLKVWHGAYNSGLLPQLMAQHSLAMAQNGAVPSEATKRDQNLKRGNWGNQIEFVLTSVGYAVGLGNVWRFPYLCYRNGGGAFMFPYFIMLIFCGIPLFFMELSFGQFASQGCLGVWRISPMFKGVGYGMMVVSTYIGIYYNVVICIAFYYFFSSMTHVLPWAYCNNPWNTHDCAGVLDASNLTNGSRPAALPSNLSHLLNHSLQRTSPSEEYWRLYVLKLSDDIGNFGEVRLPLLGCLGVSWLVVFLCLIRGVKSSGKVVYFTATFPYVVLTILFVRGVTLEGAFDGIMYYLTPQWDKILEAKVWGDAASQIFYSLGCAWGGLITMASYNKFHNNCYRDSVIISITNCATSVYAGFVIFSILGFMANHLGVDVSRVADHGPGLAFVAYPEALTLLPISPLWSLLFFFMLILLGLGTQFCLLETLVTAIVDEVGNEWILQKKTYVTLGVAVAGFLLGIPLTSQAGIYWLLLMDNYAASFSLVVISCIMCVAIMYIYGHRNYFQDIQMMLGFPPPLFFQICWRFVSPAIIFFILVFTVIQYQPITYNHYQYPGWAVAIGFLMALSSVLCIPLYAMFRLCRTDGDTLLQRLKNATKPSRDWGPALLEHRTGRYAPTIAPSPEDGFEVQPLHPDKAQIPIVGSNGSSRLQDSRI

[4] = molecular target: T3, Sodium- and chloride-dependent glycine transporter 1; assay: Inhibition of glycine transporter 1 by HTS assay

Structure (SMILES)	IC50 [1] [nM]	IC50 [2] [nM]	IC50 [3] [nM]	IC50 [4] [nM]
CCCS(=O)(=O)N1CCC(CNC(=O)c2ccccc2)(c2cccc(C)n2)CC1	> 30000	> 30000	54.7	
CCCS(=O)(=O)N1CCC(CNC(=O)c2c(N)cccc2Cl)(c2ccccn2)CC1	> 30000	> 30000	6.9	
CCCS(=O)(=O)N1CCC(CNC(=O)c2ccccc2C(F)(F)F)(c2ccccn2)CC1	> 30000	> 30000	31.3	
CCCS(=O)(=O)N1CCC(CNC(=O)c2ccccc2Cl)(c2cccc(C)n2)CC1	> 30000	> 30000	3	
CCCS(=O)(=O)N1CCC(c2ccccn2)([C@H](C)NC(=O)c2cc(F)cc(F)c2Cl)CC1	> 30000	> 30000	4	
CCCS(=O)(=O)N1CCC(CNC(=O)c2ccccc2Cl)(C2CCCCN2C)CC1 (stereo not drawn)			58.9	
CCCS(=O)(=O)N1CCC(CNC(=O)c2cccc(C)c2)(c2ccccn2)CC1	> 30000	> 30000	833	
CCCS(=O)(=O)N1CCC(CNC(=O)c2ccccc2Cl)(c2cc(C)ccn2)CC1	> 30000	> 30000	38.3	
CCCS(=O)(=O)N1CCC(CNC(=O)c2ccccc2OC(F)(F)F)(c2ccccn2)CC1	> 30000	> 30000	19.4	
CCCS(=O)(=O)N1CCC(CNC(=O)c2ccc(Cl)cc2Cl)(c2cccc(C)n2)CC1	> 30000	> 30000	2.5	
CCCS(=O)(=O)N1CCC(CNC(=O)c2ccc(Cl)c(Cl)c2)(c2ccccn2)CC1	> 30000	> 30000	131	
CCCS(=O)(=O)N1CCC(CNC(=O)c2ccccc2)(C2CCCCN2C)CC1 (stereo not drawn)			3310	
CCCS(=O)(=O)N1CCC(CNC(=O)c2ccccc2C)(C2CCCCN2C)CC1 (stereo not drawn)			148	
CCCS(=O)(=O)N1CCC(CNC(=O)c2cccc(Cl)c2)(c2ccccn2)CC1	> 30000	> 30000	517	
CCCS(=O)(=O)N1CCC(CNC(=O)c2cc(F)cc(F)c2Cl)(C2CCCCN2C)CC1 (stereo not drawn)			43.1	
CCCS(=O)(=O)N1CCC(CNC(=O)c2ccccc2Cl)(c2cccc(N3CCOCC3)n2)CC1			482	
CCCS(=O)(=O)N1CCC(CNC(=O)c2ccccc2OC)(c2ccccc2)CC1				130
CCCS(=O)(=O)N1CCC(CNC(=O)c2c(Cl)cccc2Cl)(c2ccccn2)CC1	> 30000	> 30000	6.6	
CCCS(=O)(=O)N1CCC(CNC(=O)c2ccccc2OC(F)(F)F)(C2CCCCN2C)CC1 (stereo not drawn)			21.2	
CCCS(=O)(=O)N1CCC(c2ccccn2)([C@@H](C)NC(=O)c2ccccc2OC(F)(F)F)CC1			2590	
CCCS(=O)(=O)N1CCC(CNC(=O)c2ccc(Cl)cc2Cl)(C2CCCCN2C)CC1 (stereo not drawn)			9.5	

Structure (SMILES)	IC50 [1] [nM]	IC50 [2] [nM]	IC50 [3] [nM]	IC50 [4] [nM]
CCCS(=O)(=O)N1CCC(c2ccccn2)([C@H](C)NC(=O)c2ccccc2OC(F)(F)F)CC1	> 30000	> 30000	17.7	
CCCS(=O)(=O)N1CCC(c2ccccn2)([C@H](C)NC(=O)c2ccc(Cl)cc2Cl)CC1	> 30000	> 30000	3	
CCCS(=O)(=O)N1CCC(CNC(=O)c2ccc(Cl)cc2Cl)(c2cccc(N3CCOCC3)n2)CC1			412	
CCCS(=O)(=O)N1CCC(CNC(=O)c2ccccc2)(c2cccc(OC)n2)CC1	> 30000	> 30000	48.3	
CCCS(=O)(=O)N1CCC(CNC(=O)c2ccc(Cl)cc2Cl)(c2cccc(OC)n2)CC1	> 30000	> 30000	7.4	
CCCS(=O)(=O)N1CCC(CNC(=O)c2ccccc2F)(c2ccccn2)CC1	> 30000	> 30000	49.4	
CCCS(=O)(=O)N1CCC(CNC(=O)c2ccccc2)(c2ccccn2)CC1	> 30000	> 30000	107	
CCCS(=O)(=O)N1CCC(CNC(=O)c2ccc(Cl)cc2)(c2ccccn2)CC1	> 30000	> 30000	103	
CCCS(=O)(=O)N1CCC(CNC(=O)c2ccccc2Cl)(c2ccccn2)CC1	> 30000	> 30000	11.9	
CCCS(=O)(=O)N1CCC(CNC(=O)c2ccc(Cl)cc2Cl)(c2ccccn2)CC1	> 30000	> 30000	4.4	
CCCS(=O)(=O)N1CCC(CNC(=O)c2ccccc2Cl)(c2cccc(OC)n2)CC1	> 30000	> 30000	6.9	
CCCS(=O)(=O)N1CCC(CNC(=O)c2c(F)ccc(F)c2Cl)(c2ccccn2)CC1	> 30000	> 30000	5.7	
CCCS(=O)(=O)N1CCC(CNC(=O)c2ccc(Cl)cc2Cl)(c2cccnc2)CC1			69.3	
CCCS(=O)(=O)N1CCC(CNC(=O)c2ccccc2)(c2cc(C)ccn2)CC1	> 30000	> 30000	129	
CCCS(=O)(=O)N1CCC(CNC(=O)c2ccc(Cl)cc2Cl)(c2cc(C)ccn2)CC1	> 30000	> 30000	3.5	
CCCS(=O)(=O)N1CCC(c2ccccn2)([C@@H](C)NC(=O)c2cc(F)cc(F)c2Cl)CC1			576	
CCCS(=O)(=O)N1CCC(CNC(=O)c2ccccc2C)(c2ccccn2)CC1	> 30000	> 30000	19.5	
CCCS(=O)(=O)N1CCC(CNC(=O)c2ccccc2)(c2cccc(N3CCOCC3)n2)CC1			> 5000	
CCCS(=O)(=O)N1CCC(CNC(=O)c2ccc(Cl)cc2Cl)(c2ccncc2)CC1			79.3	
CCCS(=O)(=O)N1CCC(c2ccccn2)([C@@H](C)NC(=O)c2ccc(Cl)cc2Cl)CC1			661	

— ChEMBL document CHEMBL1152872, “Discovery of N-{[1-(propylsulfonyl)-4-pyridin-2-ylpiperidin-4-yl]methyl}benzamides as novel, selective and potent GlyT1 inhibitors” (Bioorg Med Chem Lett, 2009)
